ChEMBL document CHEMBL5241075, “Advancement of chimeric hybrid drugs to cure malaria infection: An overview with special emphasis on endoperoxide pharmacophores” (Eur J Med Chem, 2021)
In brackets after ≈: the same amount, converted by molar mass.

Legend:
Plasmodium falciparum [1] = assay: Antiplasmodial activity against Plasmodium falciparum D10; format: functional, organism-based; settings: Plasmodium falciparum, D10
Hemozoin = assay: Inhibition of Beta-hematin in Plasmodium falciparum
HeLa = assay: Antiproliferative activity against human HeLa cells assessed as cell growth inhibition; format: functional, cell-based; settings: Homo sapiens, HeLa
Plasmodium falciparum [2] = assay: Antiplasmodial activity against Plasmodium falciparum K1; format: functional, organism-based; settings: Plasmodium falciparum, K1
Plasmodium falciparum [3] = assay: Resistance index, ratio of IC50 for antiplasmodial activity against Plasmodium falciparum K1 to IC50 for antiplasmodial activity against Plasmodium falciparum D10; format: functional
[4] = Therapeutic index, ratio of IC50 for antiproliferative activity against human HeLa cells to IC50 for antiplasmodial activity against Plasmodium falciparum K1; format: toxicity, cell-based; settings: HeLa cells, read-out: Ratio IC50
Plasmodium falciparum [5] = assay: Antiplasmodial activity against Plasmodium falciparum 3D7; format: functional, organism-based
Plasmodium falciparum [6] = assay: Antimalarial activity against chloroquine resistant Plasmodium falciparum FcB1; format: functional, organism-based
Plasmodium falciparum [7] = assay: Antiplasmodial activity against Plasmodium falciparum FcM29; format: functional, organism-based
Plasmodium falciparum [8] = assay: Antiplasmodial activity against Plasmodium falciparum Nigerian; format: functional, organism-based
Plasmodium falciparum [9] = assay: Antiplasmodial activity against Plasmodium falciparum NF54; format: functional, organism-based
Plasmodium falciparum [10] = assay: Antiplasmodial activity against Plasmodium falciparum DD2; format: functional, organism-based
Caco-2 = assay: Cytotoxicity against human Caco-2 cells assessed as reduction in cell viability; format: functional
Plasmodium falciparum [11] = assay: Antiplasmodial activity against Plasmodium falciparum W2; format: functional, organism-based
Plasmodium berghei = assay: Antimalarial activity against liver stage Plasmodium berghei; format: functional, organism-based
Plasmodium falciparum [12] = assay: Antiplasmodial activity against Plasmodium falciparum D6; format: functional, organism-based
Plasmodium falciparum [13] = assay: Antiplasmodial activity against chloroquine resistant Plasmodium falciparum; format: functional, organism-based
[14] = Stability of compound at pH 2 assessed as half life; format: physicochemical; settings: buffer
Plasmodium falciparum [15] = assay: Antiplasmodial activity against Plasmodium falciparum TM91C235; format: functional, organism-based
[16] = read-out: ED50 (the source's name)

SMILES: C[C@@H]1CC[C@H]2[C@@H](C)C(OCc3ccc(C(=O)N(CCCCNc4ccnc5cc(Cl)ccc45)CC(=O)NC4CCCCC4)cc3)O[C@@H]3O[C@]4(C)CC[C@@H]1[C@]32OO4 (stereo partly drawn)
- IC50 (Plasmodium falciparum [1]): 0.035 µM
- IC50 (Hemozoin): 0.31 equiv
- IC50 (HeLa): 0.169 µM
- IC50 (Plasmodium falciparum [2]): 0.021 µM
- Ratio IC50 (Plasmodium falciparum [3]): 0.88
- selectivity ratio [4]: 8

SMILES: C[C@H]1[C@@H](OCc2ccc(C(=O)O)cc2)O[C@@H]2O[C@@]3(C)CC[C@H]4[C@H](C)CC[C@@H]1[C@@]24OO3
- EC50 (Plasmodium falciparum [5]; [16]): 4 ng/mL
- IC50 (Plasmodium falciparum [1]): 0.006 µM
- IC50 (Plasmodium falciparum [2]): 0.006 µM
- EC50 (Plasmodium falciparum [2]; [16]): 1.4 ng/mL (≈ 3.35 nM)
- Ratio IC50 (Plasmodium falciparum [3]): 0.75

SMILES: CCOP(=O)(CCCN(O)C(=O)CCC(=O)N(CCCCNC(=O)CC[C@H]1O[C@@H]2O[C@]3(C)CC[C@H]4[C@H](C)CC[C@@H]([C@H]1C)C24OO3)CCCNC(=O)CC[C@@H]1O[C@H]2O[C@@]3(C)CC[C@@H]4[C@@H](C)CC[C@H]([C@@H]1C)C24OO3)OCC
- IC50 (Plasmodium falciparum [6]): 0.65 µM

SMILES: Clc1cc(NCCNC2CCC3(CC2)OOC2CCC=CC2O3)c2ncccc2c1 (stereo not drawn)
- IC50 (Plasmodium falciparum [7]): 0.036 µM
- IC50 (Plasmodium falciparum [6]): 0.036 µM
- IC50 (Plasmodium falciparum [8]): 0.036 µM

SMILES: C1CCCC2(CC1)OOC1(CCN(c3nc(N4CCOCC4)nc(N4CCOCC4)n3)CC1)OO2
- IC50 (Plasmodium falciparum [5]): 0.00571 µM

SMILES: COc1cc(NC(C)CCCNC2CCC3(CC2)OO[C@@]2(C)CCC(C(C)C)=C[C@H]2O3)c2ncccc2c1 (stereo partly drawn)
- IC50 (Plasmodium falciparum [7]): 0.108 µM
- IC50 (Plasmodium falciparum [6]): 0.108 µM
- IC50 (Plasmodium falciparum [8]): 0.108 µM

SMILES: C1CCC2(CC1)OOC1(CCN(c3nc(N4CCOCC4)nc(N4CCOCC4)n3)CC1)OO2
- IC50 (Plasmodium falciparum [5]): 0.00568 µM

SMILES: C1CN(c2nc(N3CCOCC3)nc(N3CCC4(CC3)OOC3(OO4)C4CC5CC(C4)CC3C5)n2)CCO1
- IC50 (Plasmodium falciparum [5]): 0.00412 µM

SMILES: COc1ccc2nc3cc(Cl)ccc3c(N3CCN(CCO[C@H]4O[C@@H]5O[C@]6(C)CC[C@H]7[C@H](C)CC[C@@H]([C@H]4C)[C@@]57OO6)C(C)C3)c2c1 (stereo partly drawn)
- IC50 (Plasmodium falciparum [9]): 0.017 µM
- IC50 (Plasmodium falciparum [10]): 0.0413 µM

SMILES: C[C@@H]1CC[C@H]2[C@@H](C)C(OCc3ccc(C(=O)N(CCNc4ccnc5cc(Cl)ccc45)CC(=O)NC4CCCCC4)cc3)O[C@@H]3O[C@]4(C)CC[C@@H]1[C@]32OO4 (stereo partly drawn)
- IC50 (Plasmodium falciparum [1]): 0.026 µM
- IC50 (Hemozoin): 0.45 equiv
- IC50 (HeLa): 0.286 µM
- IC50 (Plasmodium falciparum [2]): 0.023 µM
- Ratio IC50 (Plasmodium falciparum [3]): 1
- selectivity ratio [4]: 12

SMILES: COc1cc(NC(C)CCCNC(=O)C2CCC3(CC2)OOC2(OO3)C3CC4CC(C3)CC2C4)c2nccc(F)c2c1 (stereo not drawn)
- CC50 (Caco-2): > 50000 µM
- EC50 (Plasmodium falciparum [11]): 0.057 µM
- EC50 (Plasmodium berghei): 2.38 µM

SMILES: C[C@H]1[C@@H](OC(=O)CCC(=O)Nc2cccc3ncnc(Nc4ccc(Cl)c(Cl)c4)c23)O[C@@H]2O[C@]3(C)CC[C@H]4[C@H](C)CC[C@@H]1[C@@]24OO3
- EC50 (Plasmodium falciparum [5]; read-out: EC50): 0.0024 µM

SMILES: C[C@@H]1CC[C@H]2[C@@H](C)C(OCc3ccc(C(=O)N(CCNc4ccnc5cc(Cl)ccc45)CC(=O)NC(C)(C)C)cc3)O[C@@H]3O[C@]4(C)CC[C@@H]1[C@]32OO4 (stereo partly drawn)
- IC50 (Plasmodium falciparum [1]): 0.027 µM
- IC50 (Hemozoin): 0.44 equiv
- IC50 (HeLa): 0.496 µM
- IC50 (Plasmodium falciparum [2]): 0.019 µM
- Ratio IC50 (Plasmodium falciparum [3]): 0.6
- selectivity ratio [4]: 26

SMILES: COc1cc(NC(C)CCCNC(=O)C2CCC3(CC2)OOC2(OO3)C3CC4CC(C3)CC2C4)c2nccc(C(F)(F)F)c2c1 (stereo not drawn)
- CC50 (Caco-2): > 50000 µM
- EC50 (Plasmodium falciparum [11]): 0.06 µM
- EC50 (Plasmodium berghei): 4.12 µM

SMILES: CCC1O[C@@H]2O[C@]3(C)CC[C@H]4[C@H](C)CC[C@@H]([C@H]1C)[C@@]24OO3 (stereo partly drawn)
- IC50 (Plasmodium falciparum [11]): 0.29 ng/mL
- IC50 (Plasmodium falciparum [12]): 1.09 ng/mL

SMILES: C[C@@H]1CC[C@H]2[C@@H](C)C(OC(=O)CCC(=O)O)(C(F)(F)F)O[C@@H]3O[C@]4(C)CC[C@@H]1[C@]32OO4 (stereo partly drawn)
- IC50 (Plasmodium falciparum [13]): 0.0041 µM
- half-life [14]: 30 h

SMILES: Clc1cc(NCCCN[C@@H]2C[C@@H]3CCC4(OO[C@@]5(c6ccccc6)CC(c6ccccc6)=C[C@H]5O4)[C@@H]3C2)c2ncccc2c1 (stereo partly drawn)
- IC50 (Plasmodium falciparum [7]): 0.031 µM
- IC50 (Plasmodium falciparum [6]): 0.031 µM
- IC50 (Plasmodium falciparum [8]): 0.031 µM

SMILES: CCOP(=O)(CCCN(O)C(=O)CCC(=O)N(CCCNC(=O)CC[C@H]1O[C@@H]2O[C@]3(C)CC[C@H]4[C@H](C)CC[C@@H]([C@H]1C)C24OO3)CCCNC(=O)CC[C@H]1O[C@@H]2O[C@]3(C)CC[C@H]4[C@H](C)CC[C@@H]([C@H]1C)C24OO3)OCC
- IC50 (Plasmodium falciparum [6]): 0.36 µM

SMILES: Clc1cc(NCCCN[C@H]2C[C@H]3CCC4(OO[C@@]5(c6ccccc6)CC(c6ccccc6)=C[C@H]5O4)[C@H]3C2)c2ncccc2c1 (stereo partly drawn)
- IC50 (Plasmodium falciparum [7]): 0.063 µM
- IC50 (Plasmodium falciparum [6]): 0.063 µM
- IC50 (Plasmodium falciparum [8]): 0.063 µM

SMILES: CC(C)CN(NC(=O)C1CCC2(CC1)OOC1(OO2)C2CC3CC(C2)CC1C3)c1ccnc(C#N)n1 (stereo not drawn)
- IC50 (Plasmodium falciparum [11]): 0.0098 µM

SMILES: Clc1cc(NCCNC2CCC3(CC2)OO[C@@]2(c4ccccc4)CC(c4ccccc4)=C[C@H]2O3)c2ncccc2c1 (mixture of isomers)
- IC50 (Plasmodium falciparum [7]): 0.022 µM
- IC50 (Plasmodium falciparum [6]): 0.022 µM
- IC50 (Plasmodium falciparum [8]): 0.022 µM

SMILES: CC(=O)O[C@H]1CC2C(C3CC[C@H]([C@H](C)CCC(=O)NCCNc4ccnc5cc(Cl)ccc45)[C@]31C)[C@H](OC(C)=O)C[C@@H]1CC3(CC[C@H]21)OOC1(CCCCC1)OO3 (stereo partly drawn)
- IC50 (Plasmodium falciparum [11]): 0.00447 µM
- IC90 (Plasmodium falciparum [11]): 0.0105 µM
- IC50 (Plasmodium falciparum [15]): 0.00854 µM
- IC90 (Plasmodium falciparum [15]): 0.0172 µM
- IC50 (Plasmodium falciparum [12]): 0.00653 µM
- IC90 (Plasmodium falciparum [12]): 0.0106 µM
